The values below come from patent publication US20130143884A1, “4-[2-[ [5-METHYL-1-(2-NAPHTALENYL)-1H-PYRAZOL-3-YL]OXY]ETHYL] MORPHOLINE SALTS” (priority 2009, published 2013).

In one data set the target is sigma 1 (σ-1) site (Homo sapiens, UniProt Q99720). The conditions noted are these: cited from earlier work.
For another data set, the target named is sigma 2 (σ-2) site (Homo sapiens, UniProt Q5BJF2). The note with it: cited from earlier work.
The next data set in a line: pKa. It is filed as physicochemical.
For data set [1] the following is noted: treatment and prevention of chronic and acute pain, particularly neuropathic pain; reported in WO 2006/021462; cited from earlier work.
Data set [2] is described as follows: Solubility of the salts in crystallization screening solvents. It is filed as physicochemical. The note with it: initial screening solvents; for the maleate except ethyl acetate.
Procedure: The product obtained in the initial preparation was solved in the minimum amount of crystallization solvent at its boiling temperature or at a maximum of 75° C. […] The mother liquors were cooled to room temperature and kept for 24 hours.
Initially, a crystallization screening of compound 63 with the ten counterions depicted in table 2 was performed, at a 40 mg scale, in the following ten solvents: acetone, ethyl acetate, chloroform, N,N-dimethylformamide, methanol, ethanol, isopropanol, 2-butanol, acetonitrile and tetrahydrofuran. The procedure started with the preparation of equimolar mixtures, from known concentration methanol dissolutions, of compound 63 and the different acid counterions. The resulting crude, after the methanol evaporation, was crystallized from the hot solvents formerly mentioned. Different crystallization strategies were used depending on the solubility of each acid and compound 63 mixture, and therefore the solids were obtained using different procedures. For some acids, the mixture was not soluble in the hot crystallization solvent, obtaining a slurry solid. In other cases, the solid crystallized during room temperature cooling of the solution, or after several days at 4° C. or at −18° C. Finally, in some crystallization attempts, the solid was obtained after slow evaporation of the solvent at room temperature. […]
The nature of data set [3]: Thermodynamic solubility at pH 7.4. It is filed as physicochemical. On the procedure: General protocol for thermodynamic solubility at pH 7.4 and pH 2 is described below.
A) Thermodynamic Solubility at pH 7.4
Buffer phosphates pH 7.4 was prepared as follows: • A solution 25 mM of Na2HPO4.12H2O (for 1 l of water, weight 8.96 g) was prepared • A solution 25 mM de KH2PO4 (for 1 l of water weight 3.4 g) was prepared. • 812 ml of disodium phosphate solution+182 ml of potassium phosphate solution were mixed and pH checked according was 7.4.
Samples were equilibrated using: • Stirrer Thermomixer Control of Eppendorf a 25° C. y 1250 rpm • pHmeter with combined electrode of pH semimicro
2 mg in an HPLC vial (by duplicate) was weight and 1 ml of buffer was added. The vial was maintained at 25° C., in the stirrer Thermomixer Comfort., during 24 hours. Centrifugation at 4000 rpm followed during 15 min.
The resulting upper layer was collected with a glass pipette and transferred to the HPLC vials. Again centrifuged and the injector programmed at 2.7 mm high.
Sol.A: 2 mg in 5 ml methanol (400 ug/ml)
Sol.B: 1 ml Sol.A to 10 ml with methanol (40 ug/ml)
Sol.C: 5 ml Sol.B to 50 ml with methanol (4 ug/ml)
Sol.D: 4 ml Sol.C to 10 ml with methanol (1.6 ug/ml)
Sol.E: 5 ml Sol.D to 25 ml with methanol (0.32 ug/ml)
10 μl of all prepared solutions were injected, beginning with the more diluted standard. Blanks were also injected, for checking the absence of contamination.
The standard calibration curve was done (see FIG. 29). Consider Y=area y X=μg injected standard
10 μl of problem compound solution were injected, by duplicate and the average peak area (if quantifiable) interpolated in the standard curve (see Tables 9, 10 and 11 and example below).
Chromatographic Conditions • Column: XBridge C18 (or similar) 2.5 μm 4.6×50 mm • Temperature: 35° C. • Mobile phase: ACN/ammonium bicarbonate 10 mM. • Gradient: 0-3.5 min: from 15% ACN to 95% ACN • 3.5-5 min: 95% ACN • 5-6 min: 95 a 15% ACN • 6-8 min: 15% ACN • Flow: 1.5 ml/min • Detection: around the UV absorption maximum

Data set [4] in a line: Pharmacokinetics in rats after single oral administration (plasma, HPLC with fluorescence detection). Type of data set: in vivo. The note with it: Wistar Hannover; rat plasma, single oral 25 mg/kg (expressed as compound 63). As to the method:
The pharmacokinetics of Example 1 in Wistar Hannover rats following a single oral administration of 25 mg/kg (expressed as compound 63) was tested. For this purpose, plasma samples were collected at different time points and analyzed using HPLC (High pressure liquid chromatography) method with fluorescence detection.
Two groups were used in this test. Group 1 received vehicle and Group 2 received Example 1 at 25 mg/kg with an administration volume of 10 mL/kg.
Blood samples were extracted from the retro-orbital zone at the following time points: pre-dose, 15 min, 30 min, 1 h, 1.5 h, 2 h, 3 h, 4 h, 5 h, 6 h, 8 h and 24 h. Blood was then transferred into heparin-containing plastic tubes. Plasma was obtained by centrifugation at approximately 3000 rpm for 10 min at 4° C. These plasma samples were labeled and frozen at a temperature of approximately −65° C. until analysis.
Samples were analyzed by a previously validated analytical method. Briefly, rat plasma samples were thawed at room temperature and centrifuged at 3000 rpm for 10 min at approximately 4° C. 300 μl of plasma samples were placed into vials and spiked with 30 μl of internal standard working solution. The vials were capped and mixed thoroughly. […]
The peaks corresponding to Example 1 and its internal standard were quantified by fluorescence detection at an excitation wavelength of 260 nm and an emission wavelength of 360 nm. […]
The peak plasma concentration values (Cmax) and the time to reach such concentration (tmax) were obtained directly from the experimental data. The elimination constant (kel) was calculated by linear regression of the last phase of the curve (log concentration vs. time). The elimination half-life (t1/2) was determined with the expression t1/2=0.693/kel. The area under the curve of plasma levels vs. time from zero to the last time determined (AUC0-t) was calculated be means of the trapezoidal method. The area under the curve of plasma levels vs time from zero to infinity (AUC0-∞) was calculated with the expression: AUC0-∞=AUC0-t+Clast/kel, where Clast is the plasma concentration at the last time measured.

The nature of data set [5]: Descriptive solubility in water and solvents. Type of data set: physicochemical.
Data set [6] is described as follows: Dissolution and absorption profile in vivo. The conditions noted are these: compared with its related base.

Several values for one entry are separate records, joined by “and”; a condition that tells them apart may be missing. Identical values can stand only once. Counter-ions that a name gives are not always drawn. Like-named read-outs stand apart in the source and are kept apart here. Some results are limits rather than exact numbers.

sigma 1 (σ-1) site, sequence (Q99720 whole entry): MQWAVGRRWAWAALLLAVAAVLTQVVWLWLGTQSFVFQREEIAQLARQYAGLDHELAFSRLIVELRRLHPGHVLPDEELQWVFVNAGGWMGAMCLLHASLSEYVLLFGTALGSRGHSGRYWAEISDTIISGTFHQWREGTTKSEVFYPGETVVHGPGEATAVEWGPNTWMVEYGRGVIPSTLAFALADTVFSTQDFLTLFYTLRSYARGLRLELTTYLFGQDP
sigma 2 (σ-2) site, sequence (Q5BJF2 whole entry): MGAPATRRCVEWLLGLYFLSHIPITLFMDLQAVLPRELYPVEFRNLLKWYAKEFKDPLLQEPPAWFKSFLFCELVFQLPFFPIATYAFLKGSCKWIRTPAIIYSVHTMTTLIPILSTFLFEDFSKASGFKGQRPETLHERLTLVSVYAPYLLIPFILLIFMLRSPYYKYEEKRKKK

With SKF 10047 [reference compound], the “Affinity for the sigma 1 (σ-1) site” value at sigma 1 (σ-1) site is listed as “nanomolar”. Moreover, the “Affinity for the sigma 2 (σ-2) site” value at sigma 2 (σ-2) site is on record as “micromolar”.

In turn, `Cc1cc(OCCN2CCOCC2)nn1-c1ccc2ccccc2c1` [compound 63, 4-[2-[[5-methyl-1-(2-naphthalenyl)-1H-pyrazol-3-yl]oxy]ethyl]morpholine] yielded a pKa in the data set “pKa” of 6.7. For the same molecule, the Sigma-1 receptor activity entry on sigma 1 (σ-1) site (reported in WO 2006/021462) is given as “highly selective sigma-1 (σ-1) receptor antagonist”. Also, in [1], the Analgesic activity entry was “strong analgesic activity”.

On to `CCS(=O)(=O)O.Cc1cc(OCCN2CCOCC2)nn1-c1ccc2ccccc2c1` [ethanesulfonate salt], for which the “Solubility in all the solvents assayed (first set of ten solvents)” value in [2] was more than 200000 µg/mL.

The molecule `Cc1cc(OCCN2CCOCC2)nn1-c1ccc2ccccc2c1` [Example 1, 4-[2-[[5-methyl-1-(2-naphthalenyl)-1H-pyrazol-3-yl]oxy]ethyl]morpholine hydrochloride] displayed a thermodynamic solubility at 24 h in [3] (aqueous buffer, thermodynamic from solid, pH=7.4, phosphate buffer 50 mM, 25° C., 24 hours) of 227 µg/mL. Also, in [3] (pH 7.4, duplicate samples, duplicate injections, hydrochloride), the “Conc. (single injections)” value was 225.5 µg/mL and 229.0 µg/mL and 229.3 µg/mL and 225.3 µg/mL. Moreover, the “Conc. Mean” value in [3] (pH 7.4, mean of 4 injections) came out at 227.262 µg/mL. Besides, in data set [4], the AUC(0-inf) is 1250 ng·h/mL, the AUC(0-t) was 1220 ng·h/mL and the Cmax worked out at 1.15 µg/mL. In the data set “pKa” (read-out: pKa), the pKa came to 6.73. For the same molecule, the “Solubility in 1N hydrochloric acid” value in [5] (1N hydrochloric acid) is on record as “freely soluble”. Also, the “Solubility in 1N sodium hydroxide” value in data set [5] (1N sodium hydroxide) was “practically insoluble”. Also, the Solubility in acetone entry in [5] (acetone) is recorded as “slightly soluble”. Besides, the “Solubility in dimethyl sulphoxide” value in [5] (dimethyl sulphoxide) is given as “freely soluble”. Moreover, in [5] (ethanol), the Solubility in ethanol entry is “sparingly soluble”. For the same molecule, the “Solubility in ethyl acetate” value in data set [5] (ethyl acetate) is listed as “practically insoluble”. In addition, in data set [5] (methanol), the Solubility in methanol entry is recorded as “freely soluble”. Also, the Solubility in water result in data set [5] (water) is “very soluble”. For the same molecule, in [6], the “Dissolution and absorption profile in vivo” value is “better dissolution and absorption profile in vivo than its related base”.
